Literature values in patent US12257290B2, “PIC1 inhibition of myeloperoxidase oxidative activity in an animal model” (priority 2018, dated 2025).

Conditions: intranasal administration; animal models; cited from earlier work

Substance: DNase
- symptoms of TRALI: reduced symptoms of TRALI
